Source: US20050221285A1, “Method for identifying or screening anti-viral agents” (priority 2001, published 2005)
Converted amounts (≈) assume the structure as drawn.

System: RSV Long wild type
Assay: Assay for compounds active against RSV (HEp2 cells, MTT cell viability)
Conditions: human respiratory syncytial virus, HEp-2
Protocol: Graded concentrations of test compounds were prepared by serial dilution in 96 well tissue culture plates containing 100 μL per well of assay media (Eagles Minimal Essential Medium (MEM) supplemented with 2% foetal bovine serum and Glutamine alanyl-L-glutamine). […] 1.5×10^4 of the diluted cells were added to several individual wells of each 96 well plate which were designated uninfected control wells. The remaining cell suspension was exposed to infectious RSV by addition of sufficient virus to the suspension to yield a concentration of 0.4 plaque forming units per cell. The cell-virus suspension was mixed well by inversion and 100 μL immediately dispensed into the remaining wells of the 96 well plates. Assay plates were incubated in a 37° C. incubator for 5 days. Viral replication was quantified by determination of cell viability substantially as described by Watanabe and colleagues (Watanabe, W. et al., J. Virol. Methods, 48: 257-265, 1994). Briefly, 100 μL of 3 mg/mL MTT (3(4,5-dimethylthiazol-2-yl)-2,5-diphenyltetrazolium bromide) was added to each well and plates incubated at 37° C. in a 5% CO2 incubator for 2 hours. […] The extent of metabolism was measured via determination of absorbance using a computer-controlled microplate reader at 540 nm with a reference wavelength of 690 nm. […]

## NC(=O)c1ncn(C2O[C@H](CO)[C@@H](O)[C@H]2O)n1 (stereo partly drawn) [Ribavirin, 1-D-ribofuranosyl-1H-1,2,4-triazole-3-carboxamide]
  EC50: 5.54 µg/mL (≈ 22.7 µM)
